Experimental data from patent publication US20060148725A1, “Selective 11beta HSD inhibitors and methods of use thereof” (The Miriam Hospital, priority 2001, published 2006).

Experiments:
rat aortic rings = assay: Contractile response of rat aortic rings to phenylephrine; type: cell-based; conditions: rings incubated 24 hours with corticosterone 10 nmol/L and antisense 3 μmol/L; graded phenylephrine
Protocol: Male Sprague-Dawley (1 50-200 g) rats were anesthetized with pentobarbital (50 mg/kg IP), and a median sternotomy was performed followed by the rapid removal of the thoracic aorta. The adventitia was removed, but the endothelium was left intact. The aorta was cut into 2-3 mm rings and individual rings were placed into a single well of a twenty four well culture plate and incubated at 37° C. under 95% O2-5% CO2. Each well contained 1 mL of DMEM/F12 containing 1% fetal bovine serum, streptomycin (100 μg/ml), penicillin (100 units/ml) and amphotericin (0.25 μg/ml). […]
For contraction measurements, aortic rings were suspended by tungsten wires with 1 g of tension and placed in a vessel bath containing serum free DMEM/F12 media at 37° C. aerated with 95% O2-5% CO2, at pH 7.4. […] The intensity of contraction was assessed by use of a Narishige micromanipulator and model FT03 force transducer (Grass Instrument Co. West Warwick, R.I.). Measurements were recorded on computer using the Labview 4.1 Virtual Instrument System (National Instruments, Austin, Tex.).

11β-HSD1 [1] = assay: Conversion of 3H-corticosterone to 11-dehydrocorticosterone by aortic rings, 11β-HSD1 antisense; type: cell-based, rat; conditions: 3H-corticosterone 10 nM, antisense 3 μM, 24 hrs
Protocol: (§1) The effects of 11β-HSD1 and 11β-HSD2 antisense on the inter-conversion of ^3H-corticosterone and ^3H-11-dehydro-corticosterone by aortic rings was also determined. Rings (2-3 mm) obtained in a similar manner as those in the contraction studies, were incubated in 1 ml DMEM/F12 media containing 1% FBS at 37° C. under 95% O2-5% CO2 in 24-well culture plates. Rings were incubated for 24 hours with: • (i) ^3H-corticosterone (10 nmol/L)±11β-HSD2 or 11β-HSD1 antisense (3 μmol/L); control groups received nonsense oligomers. The amount of ^3H-11-dehydro-corticqsterone in the incubation medium after 24 hrs was then measured. The effects of 11β-HSD1 antisense/nonsense were measured in quadruplicate (n=6 aortic rings per well) and the effects of 11β-HSD2 antisense/nonsense in duplicate (n=8 aortic rings per well), • (ii) ^3H-11-dehydro-corticosterone (10 nmol/L)±11β-HSD1 antisense (3 μmol/L); this experiment was performed in duplicate (n=10 aortic rings per well). Control groups were incubated with the appropriate nonsense oligomer. ^3H-corticosterone in the incubation medium after 24 hrs was then measured. In this experiment, aortic rings were also analyzed for ^3H-corticosterone content. Rings from duplicate incubations (total n=20) were blotted dry, pooled and homogenized in 50 % methanol using a Polytron. […]

11β-HSD1 [2] = assay: RT-PCR analysis of 11β-HSD1 expression in cultured vascular cells; type: cell-based; conditions: cultured rat vascular endothelial and smooth muscle cells
Text: (§2) Since 11β-HSD2 appears to exist only in endothelial cells, this observation supports a role for the action of glucocorticoids in affecting endothelial cell function. […] Further experiments to determine whether antisense oligomers down-regulate mRNA and protein expression of their respective 11β-HSD isoform under conditions in which they enhance contractile responses in aortic rings will be done.

11β-HSD1 Reductase = 11β-HSD1 Reductase (Rattus norvegicus, UniProt P16232); assay: Metabolism of 3H-11-dehydrocorticosterone back to corticosterone by aortic rings; type: cell-based; design: from tissue; host or cells: rat (Sprague-Dawley) thoracic aortic rings, endothelium intact; conditions: 24 hours
Protocol: as §1

11β-HSD2 [3] = assay: Conversion of 3H-corticosterone to 11-dehydrocorticosterone by aortic rings, 11β-HSD2 antisense; type: cell-based, rat; conditions: antisense 3 μM, 24 hrs
Protocol: as §1

11β-HSD2 [4] = assay: RT-PCR analysis of 11β-HSD2 expression in cultured vascular cells; type: cell-based; conditions: cultured rat vascular endothelial and smooth muscle cells
Text: as §2

11β-HSD1 Reductase, sequence (P16232 whole entry): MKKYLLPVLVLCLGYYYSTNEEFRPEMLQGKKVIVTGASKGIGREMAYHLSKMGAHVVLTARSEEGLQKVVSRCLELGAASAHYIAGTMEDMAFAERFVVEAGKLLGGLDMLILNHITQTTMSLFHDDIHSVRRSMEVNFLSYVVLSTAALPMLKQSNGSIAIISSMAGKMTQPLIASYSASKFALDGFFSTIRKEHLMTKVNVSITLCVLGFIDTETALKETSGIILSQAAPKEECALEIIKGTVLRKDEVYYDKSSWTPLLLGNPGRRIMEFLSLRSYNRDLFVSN

Substance | contractile response to phenylephrine compared to corticosterone plus nonsense oligomers (rat aortic rings) | conversion of corticosterone to 11-dehydrocorticosterone, lower than with 11β-HSD1 nonsense oligomers (11β-HSD1 [1]) [%] | expression of 11β-HSD1 isoform by RT-PCR (11β-HSD1 [2]) | production of 3H-corticosterone from 3H-11-dehydrocorticosterone, incubation media, compared to nonsense oligomers (11β-HSD1 Reductase; incubation media) | production of 3H-corticosterone from 3H-11-dehydrocorticosterone, aortic ring tissue, compared to nonsense oligomers (11β-HSD1 Reductase; pooled aortic ring tissue) | reduction in the conversion of corticosterone to 11-dehydrocorticosterone compared to 11β-HSD2 nonsense (11β-HSD2 [3]) [%] | expression of 11β-HSD2 isoform by RT-PCR (11β-HSD2 [4])
11β-HSD1 antisense: Antisense phosphorothioate oligonucleotide blocking 11β-HSD1 gene expression, 5′-CATAACTGCCGTCCAACAGC-3′ (antisense CATAACTGCCGTCCAACAGC; all phosphorothioate, sugars by position and methylation of C not given here) | significantly increased | 21 | down-regulate | markedly reduced | markedly lower |  | 
11β-HSD2 antisense: Antisense phosphorothioate oligonucleotide blocking 11β-HSD2 gene expression, 5′-AGGCCAGCGCTCCATGACTT-3′ (antisense AGGCCAGCGCTCCATGACTT; all phosphorothioate, sugars by position and methylation of C not given here) | statistically significant increase |  |  |  |  | 24 | down-regulate
